# From patent US20240118263A1, “TARGET FOR SCREENING ANTI-TUMOR DRUG, USE THEREOF AND SCREENING METHOD THEREFOR” (SHENYANG FUYANG PHARMACEUTICAL TECHNOLOGY CO., LTD., priority 2019, published 2024)
# Legend:
# 786-O xenograft = test: 786-O subcutaneous xenograft model; type: in vivo, NSG mice; details: 35 mg/kg intraperitoneally daily, vs control
# Protocol: (§1) For subcutaneous xenografts, NSG mice (6-8 weeks old) from the NCI-Frederick animal facility and Jackson Lab (Bar Harbor, ME USA) were injected with 5×10^6 to 1×10^7 cells subcutaneously in the flank. One week later, the tumor-bearing mice were randomly assigned to different groups and made the tumor volume baseline equivalent and treated with normal saline or Zenomycin (35 mg/kg) everyday intraperitoneally. Tumors were measured using a caliper, and volume was calculated.
# SELH [1] = molecular target: T1, SELH (Homo sapiens (Human), UniProt Q8IZQ5); test: Thermo-stability assay (CETSA) in LN229 and 786-O cell lines; type: binding; details: western blot, vs DMSO
# T1 sequence (Q8IZQ5 whole entry): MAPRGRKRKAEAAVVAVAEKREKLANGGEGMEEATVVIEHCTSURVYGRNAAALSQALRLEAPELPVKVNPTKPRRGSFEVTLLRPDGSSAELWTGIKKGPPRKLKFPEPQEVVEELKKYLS
# Source text: Next, the inventors used a thermo-stability assay to confirm SELH was targeted by ISP I in LN229 and 786-O cell lines. The principle of the assay is based on altered protein thermal stabilization/destabilization due to ligand binding in living cells. […] (FIG. 11B and FIG. 12A). To verify further the specificity of ISP I's targeting of SELH, the inventors designed a surface plasmon resonance assay to assess the interaction of ISP I with SELH synthesized in bacteria.
# CETSA experiments were performed to determine the ISP I-related ligand induced shifts. Intact and live cells in a 10-cm dish were harvested, washed and resuspended in PBS with protease inhibitor cocktail. Protein of the cells was extracted by freeze-thaw more than three times, using liquid nitrogen. The supernatant was centrifuged at 20,000 g for 20 min at 4° C. Then the samples were aliquoted to several groups incubated with different concentrations of ISP I for 1 hour. After that, samples were aliquoted into PCR tubes and thereafter heated at gradient temperature ranging from 40° C. to 80° C. for 3 min. Then the samples were centrifuged again and resolved using 4-12% SDS-PAGE followed by western blot experiments.
# IOMM xenograft = test: IOMM meningioma subcutaneous xenograft model; type: in vivo, Nude mice; details: 35 mg/kg intraperitoneally daily, vs control
# Protocol: as §1
# SELH protein degradation = SELH protein degradation (Homo sapiens (Human), UniProt Q8IZQ5)
# Sequence of SELH protein degradation (Q8IZQ5 whole entry): as above
# Source text: A cycloheximide (CHX) chase assay was completed to assess ISP I's effect on SELH protein degradation.
# 786-O and RCC4 cells = test: Annexin V apoptosis analysis, RCC cells; type: cell-based
# Protocol: Cell viability was assessed similarly via CKK8 analysis. […] (FIG. 10C, D).
# Cell apoptosis and cell cycle: Cells (2×10^5) were plated in 6-well plates and treated with different concentrations of ISP I. Then the cells were harvested and washed three times with PBS. Cells were resuspended in 100 μl binding buffer and were incubated with 5 μl APC-conjugated Annexin V working solution, a product of BD bioscience (Franklin Lakes, NJ USA), and 1 μl propidium iodide (PI), a product of Invitrogen, for 15 min at room temperature with protection from light. Data acquisition and quantification were processed with BD LSRFortessa flow cytometer, using FlowJo software (Ashland, OR USA).
# [2] = tested on: B16 melanoma lung metastasis; test: Metastatic murine melanoma (B16) lung metastasis model; type: in vivo, C57BL/6 mice; details: ISP I 35 mg/kg intraperitoneally daily, 12 days, vs saline
# Protocol: In addition to the aforementioned xenograft tumor models, the anti-tumor activity of ISP I was assessed in a metastatic murine melanoma (B16) model. Mice were intravenously injected with 2×10^5 B16 cells and randomized into the following three treatment groups: ISP I (35 mg/kg), Carrimycin (56 mg/kg), Saline (control) (FIG. 13D).
# For metastasis study, C57BL/6 mice (4-5 weeks) from Charles River Laboratories (Wilmington, MA USA) were assigned randomly to one or another of two groups, 9 animals per group. B16-F10 mouse skin melanoma cells (2×10^5) were resuspended in 100 μl saline and injected through tail vein. After treatment with ISP I at 35 mg/kg for 12 days, all mice were euthanized, and the lungs were examined for counting black metastasis dots.
# LN229 and U251 cells = test: Cell cycle analysis by flow cytometry (EdU and DAPI), glioblastoma cells; type: cell-based; details: LN229 and U251, compared with control cells
# Protocol: For monitoring cell-cycle arrest of ISP I-treated cells, Click-iT EdU Flow Cytometry Assay Kits were used, a product of ThermoFisher Scientific. Cells were co-cultured with EdU at a concentration of 10 μM for 1 hour. After fixation and permeabilization, EdU-positive cells were labeled with Alexa Fluor 647 fluorescein. DAPI also was used for measuring total DNA content to identify differences in cell cycle phases. Data were collected by means of a BD LSRFortessa flow cytometer using FlowJo software. Cells that are positive with EdU and DAPI were in S-Phase of the cell cycle.
# [3] = tested on: human non-small cell lung cancer cells A549; test: MTT in-vitro anti-tumor activity test, A549; details: MTT
# Protocol: Experimental Materials Human non-small cell lung cancer cells A549, mouse breast cancer cells 4T-1 and mouse melanoma B16-BL6 were purchased from American Type Current Collection (ATCC, Rockville, MD, USA). An RPMI-1640 culture solution containing 10% of fetal calf serum and 2% of glutamine was inoculated with the A549, 4T-1 and B16-BL6 cells, and the cells were incubated at 37° C. in a 5% CO2 incubator.
# The compounds were dissolved in DMSO under a sterile condition, and the obtained solutions were diluted to required concentrations by using an RPMI 1640 culture solution, wherein the final concentration of the DMSO was less than 0.5%.
# MTT reduction method is used.
# A549, 4T-1 and B16-BL6 were used as adherent cells, adherent tumor cells in a logarithmic phase were selected, digested with pancreatin, and then prepared into a cell suspension of 5×10^4/ml with a culture medium containing 10% of calf serum, a 96-well culture plate was inoculated with the cell suspension, wherein each well contained 100 μl of the cell suspension, and incubation was carried out for 24 h at 37° C. and 5% CO2. Replacing was carried out with a new culture solution containing the samples to be detected of different concentrations in the experimental groups, replacing was carried out with a culture solution containing a same volume of solvent in the control group, three parallel wells were set in each group, and incubation was carried out for 48 hours at 37° C. and 5% CO2. The supernate was discarded, careful washing was carried out with PBS twice, 100 μl of a freshly prepared culture medium containing 0.5 mg/ml of MTT was added into each well, and incubation was continued to be carried out at 37° C. for 4 h. The supernatant was carefully discarded, 150 μl of DMSO was added, uniform mixing was carried out for 10 min by using a micro oscillator, and the optical density value was measured at 492 nm by using a microplate reader.
# Tumor cell growth inhibition ratio (%)=[A492 (negative control)−A492 (dosing group)]/A492 (negative control)×100%
# The median inhibitory concentration (IC50) of the sample is calculated.
# SELH [4] = molecular target: T1, SELH; test: Drug affinity responsive target stability (DARTS) assay in LN229 cells; type: binding; details: LN229 lysate, ISP I 40 μg/mL, mass spectroscopy
# Protocol: (2) To identify ISP I's molecular target, the inventors performed drug affinity responsive target stability (DARTS) assay in LN229 cells.
# The inventors discovered that the binding of ISP I to its target proteins temporarily locks them into a stable conformational structure, which prevents their recognition by proteases. After evading protease degradation, the identity of ISP I's target proteins was determined using mass spectroscopy.
# DARTS assay data were taken to identify the target of ISP I in vitro. For this assay, the invenots used the protocol published by Lomenick et al., Proc. Nat'l Acad. Sci. USA 106: 21984 (2009). Briefly, LN229 cells were lysed with M-PER (Pierce) supplemented with protease and phosphatase inhibitors. After centrifugation at 14,000 rpm for 15 min, lysates were diluted to the same final volume and protein concentration with M-PER and were dissolved in TNC buffer [50 mM Tris-HCl (pH 8.0), 50 mM NaCl, 10 mM CaCl2]. All steps were performed on ice or at 4° C. to help prevent premature protein degradation. […] Peptides were analyzed by LC/MS/MS on a Thermo LTQ-Orbitrap mass spectrometer with an Eksigent LC pump. For quantitative comparison of protein and peptide abundances, MS spectra were analyzed by means of the differential workflow of Rosetta Elucidator (Rosetta Inpharmatics).
structure (smiles),measurement,setting,value
"CO[C@@H]1[C@@H](O[C@@H]2O[C@H](C)[C@@H](O[C@H]3C[C@@](C)(O)[C@@H](OC(=O)CC(C)C)[C@H](C)O3)[C@H](N(C)C)[C@H]2O)[C@@H](CC=O)C[C@@H](C)[C@@H](O[C@H]2CC[C@H](N(C)C)[C@@H](C)O2)/C=C/C=C/C[C@@H](C)OC(=O)C[C@H]1O [Isovalerylspiramycin I, 4″-isovalerylspiramycin I]","tumor size and weight, 786-O xenograft",786-O xenograft,significantly reduced tumor size and weight
same,thermal protection of SELH,SELH [1],protective effect of ISP I on SELH was present over a range of increasing temperatures
same,"tumor size and weight, IOMM xenograft",IOMM xenograft,significantly reduced tumor size and weight
same,SELH protein half-life,SELH protein degradation,reduced the SELH protein half-life
same,apoptosis (Annexin V),786-O and RCC4 cells,dose-dependent apoptosis
same,lung tumor nodules,[2],significantly reduced lung tumor nodules
same,cell distribution in cell cycle phases,LN229 and U251 cells,dose-dependent increase in the G0/G1 phase and a decrease in the S phase
same,inhibition effect on A549 cells (in words),[3],significantly inhibited the human lung cancer A549 cells
same,target protein identified by DARTS,SELH [4],SELH was the most abundant primary protein
